Data from patent US8481028B2, “Compositions for preparing a coffee beverage comprising hydrolysed chlorogenic acid” (Nestec S.A., priority 2008, dated 2013).

Experiments:
[1] = tested on: Lactobacillus johnsonii (CNCM I-1225) fresh cells; experiment: Treatment of NESCAFE PROTECT with L. johnsonii fresh cells, HPLC of chlorogenic and phenolic acids
Method: (§1) Cells of L. johnsonii (CNCM I-1225) were grown (7.0 E08 cfu/ml) and centrifuged (5000 g, 10 min), the pellets were resuspended in phosphate buffer (50 mM, pH 7.0) at a concentration of 0.61 g/ml. […] Samples were withdrawn at different reaction times, centrifuged (3000 g, 5 min) and filtered through 0.45 μm pore size syringe filters (Millipore SLHA 025 BS) and analysed by HPLC.
A reaction control was run in parallel under the same reaction conditions but without bacteria.
(§2) Coffee samples were diluted to 1% w/w and analyzed by RP-HPLC on a CC 250/4 Nucleosil 100-5-C18 column (Macherey-Nagel). The eluent system was Millipore water, 0.1% TFA and CH3CN at a flow rate of 1 mL/min. The method allowed the simultaneous determination of caffeoyl quinic acids (CQA), feruloyl quinic acids (FQA), di-caffeoyl quinic acids (diCQA), feruloyl quinic acid-lactones, caffeic acid (CA) and ferulic acid (FA) (absorbance at 325 nm) using external standard calibration curves. Results were expressed relative to the reference at time 0 (t0) or to the reference at the same time without bacteria.

[2] = tested on: concentrated preparation of Lactobacillus johnsonii (CNCM I-1225); experiment: Treatment of NESCAFE with concentrated preparation of L. johnsonii, HPLC
Method: 400 mg of NESCAFE SPECIAL FILTRE® (a dried extract of roasted coffee beans) were dissolved in 1 ml of boiling water and the solution was cooled to 37° C. at room temperature. To 250 μl of this coffee solution, different amounts of concentrated preparation of Lactobacillus johnsonii (50 μl, 100 μl, 350 μl, 750 μl) were added and the volume was adjusted to 1 ml with water. The mixtures were than incubated at 37° C. for 2 h and 4 h. After centrifugation (3000 g, 5 min) and filtration the samples were analysed by HPLC.
as §2

[3] = tested on: Lactobacillus johnsonii (CNCM I-1225) extract (lysed cells); experiment: Treatment of NESCAFE PROTECT with L. johnsonii extract (lysed cells), HPLC; format: biochemical
Method: as §1, with “g/ml. The cells were then lysed using the glass-beads method. 600 μl of cells preparation were put in screw-cap tubes and 600 μl of glass-beads were added at 0° C. The tubes were then put into a Mini-Beadbeater for 1 min of intense shaking, cooled in ice, and put another 1 min in the Mini-Beadbeater.” for “g/ml.”, “min),” for “min) and”
as §2

[4] = tested on: spray-dried preparation of Lactobacillus johnsonii (CNCM I-1225); experiment: Treatment of NESCAFE PROTECT with spray-dried preparation of L. johnsonii, HPLC
Method: (§3) To this solution, 10 mg of a spray-dried preparation of Lactobacillus johnsonii (CNCM I-1225) (3.3 E9 cfu/g) were added. The mixture was then incubated at 37° C. and samples were withdrawn at different reaction times. After centrifugation (3000 g, 5 min) and filtration (0.45 μm pore size syringe filters, Millipore SLHA 025 BS) the samples were analysed by HPLC.
as §2

[5] = tested on: spray-dried preparation of Lactobacillus johnsonii (CNCM I-1225); experiment: Treatment of green coffee extract with spray-dried preparation of L. johnsonii, HPLC
Method: as §3, with “30 mg of a dried green coffee extract was dissolved in 1 ml phosphate buffer (50 mM, pH 7.0) or in 1 ml water. To” for “To”, “johnsonii” for “johnsonii (CNCM I-1225)”, “cfu/g) was” for “cfu/g) were”
as §2

[6] = tested on: Lactobacillus johnsonii (CNCM I-1225); experiment: Treatment of coffee extracts with bacteria cells (L. johnsonii), HPLC
Method: as §2
(§4) Tested strains were harvested (centrifugation at 5000 g for 10 min) after having well reached stationary phase, corresponding to 16 hours of incubation in culture medium at 37° C. in anaerobic atmosphere without agitation. For a first activation of the strains, frozen stock cultures were inoculated in fresh media and grown overnight. This pre-culture was used to inoculate the culture.
(§5) After culture of bacteria and centrifugation, the pellets were resuspended in phosphate buffer (pH 7.0) at a concentration of 0.61 g/ml. To 200 μl of this cells preparation, 800 μl of a coffee solution (3%) was added and the mixture was incubated at 37° C. for 4 h, 16 h and 24 h.

[7] = tested on: Bifidobacterium lactis BB12 (CNCM I-3446); experiment: Treatment of coffee extracts with bacteria cells (B. lactis), HPLC
Method: as §2, §4, §5

[8] = tested on: Chlorogenate esterase; experiment: Incubation of coffee extracts with chlorogenate esterase, HPLC; format: biochemical, Aspergillus japonicus
Method: as §2
Chlorogenate esterase (24 U/g), derived from Aspergillus japonicus (Kikkoman, Japan). Tannase from Aspergillus oryzae (Kikkoman, Japan) Preparation of Bacteria Cells
A solution of chlorogenate esterase (25 mg) in 200 μl phosphate buffer (pH 7.0) was added to 800 μl of a coffee solution (3%). The mixture was then incubated at 37° C. for 4 h, 16 h and 24 h. After reaction time, the enzymatic activity was stopped by heat treatment (3 min, 90° C.) and the mixture was filtered before analysis.

COc1cc(/C=C/C(=O)O)ccc1O [FA, ferulic acid]
Concentration in % relative to untreated reference at t = 0 ([1]; 6 h, cell preparation 100 uL): 4594% | Concentration in % relative to untreated reference at t = 0 ([1]; 6 h, cell preparation 350 uL): 7234% | Concentration in % relative to untreated reference at t = 0 ([1]; 6 h, cell preparation 750 uL): 7776% | Concentration in % relative to untreated reference at t = 0 ([1]; 24 h, cell preparation 100 uL): 6691% | Concentration in % relative to untreated reference at t = 0 ([1]; 24 h, cell preparation 350 uL): 8861% | Concentration in % relative to untreated reference at t = 0 ([1]; 24 h, cell preparation 750 uL): 8845% | % relative to untreated control at t = 0 ([2]; cell amount 50 μL/1 mL, 2 h): 1509% | % relative to untreated control at t = 0 ([2]; cell amount 50 μL/1 mL, 4 h): 786% | % relative to untreated control at t = 0 ([2]; cell amount 100 μL/1 mL, 2 h): 2468% | % relative to untreated control at t = 0 ([2]; cell amount 100 μL/1 mL, 4 h): 1266% | % relative to untreated control at t = 0 ([2]; cell amount 350 μL/1 mL, 2 h): 5327% | % relative to untreated control at t = 0 ([2]; cell amount 350 μL/1 mL, 4 h): 2408% | % relative to untreated control at t = 0 ([2]; cell amount 750 μL/1 mL, 2 h): 7586% | % relative to untreated control at t = 0 ([2]; cell amount 750 μL/1 mL, 4 h): 3281% | Concentration in % relative to untreated reference at t = 0 ([3]; 2 h, cell preparation 100.0 uL): 5581% | Concentration in % relative to untreated reference at t = 0 ([3]; 2 h, cell preparation 350.0 uL): 7771% | Concentration in % relative to untreated reference at t = 0 ([3]; 6 h, cell preparation 100.0 uL): 6960% | Concentration in % relative to untreated reference at t = 0 ([3]; 6 h, cell preparation 350.0 uL): 9720% | % relative to untreated control at t = 0 ([4]; 2 h): 1109% | % relative to untreated control at t = 0 ([4]; 6 h): 2183% | % relative to untreated control at t = 0 ([4]; 24 h): 3686% | % relative to untreated control at t = 0 ([5]; 4 h): 961% | % relative to untreated control at t = 0 ([5]; 6 h): 1429% | % relative to untreated control at t = 0 ([5]; 16 h): 1963% | % relative to untreated control at t = 0 ([5]; 24 h): 2432% | % relative to untreated control at t = 0 ([6]; NESCAFE PROTECT + Lactobacillus johnsonii, 4 h): 4051% | % relative to untreated control at t = 0 ([6]; NESCAFE PROTECT + Lactobacillus johnsonii, 16 h): 5226% | % relative to untreated control at t = 0 ([6]; NESCAFE PROTECT + Lactobacillus johnsonii, 24 h): 5504% | % relative to untreated control at t = 0 ([6]; green coffee extract + Lactobacillus johnsonii, 4 h): 4607% | % relative to untreated control at t = 0 ([6]; green coffee extract + Lactobacillus johnsonii, 16 h): 7192% | % relative to untreated control at t = 0 ([6]; green coffee extract + Lactobacillus johnsonii, 24 h): 7597% | % relative to untreated control at t = 0 ([7]; NESCAFE PROTECT + Bifidobacterium lactis, 4 h): 3065% | % relative to untreated control at t = 0 ([7]; NESCAFE PROTECT + Bifidobacterium lactis, 16 h): 4518% | % relative to untreated control at t = 0 ([7]; NESCAFE PROTECT + Bifidobacterium lactis, 24 h): 5144% | % relative to untreated control at t = 0 ([7]; green coffee extract + Bifidobacterium lactis, 4 h): 5020% | % relative to untreated control at t = 0 ([7]; green coffee extract + Bifidobacterium lactis, 16 h): 6970% | % relative to untreated control at t = 0 ([7]; green coffee extract + Bifidobacterium lactis, 24 h): 7105% | % relative to untreated control at t = 0 ([8]; NESCAFE PROTECT + Chlorogenate esterase, 4 h): 2794% | % relative to untreated control at t = 0 ([8]; NESCAFE PROTECT + Chlorogenate esterase, 16 h): 5140% | % relative to untreated control at t = 0 ([8]; NESCAFE PROTECT + Chlorogenate esterase, 24 h): 5518% | % relative to untreated control at t = 0 ([8]; green coffee extract + Chlorogenate esterase, 4 h): 2620% | % relative to untreated control at t = 0 ([8]; green coffee extract + Chlorogenate esterase, 16 h): 5685% | % relative to untreated control at t = 0 ([8]; green coffee extract + Chlorogenate esterase, 24 h): 6293%
